What was measured:
[1] = target: T1, KRASG12D (Homo sapiens, UniProt P01116, G12D); assay: Bio-Biochem-PPI-HTRF Ras-SOS1 interaction assay (KRAS G12D); type: biochemical; details: 5 nM
T1 construct: made in house; host or cells: E. coli BL21 (DE3)
Method in brief: (§1)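 HTRF readout (ex 337 nm; em 620 and 665 nm) after ≥~10 min incubation; IC50 fitted from 665/620 ratio. GST-K-Ras wt or G12D plus anti-GST-Eu(K), His-hSOS1 plus anti-6His-XL665; duplicate dilutions, 10 μM top.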

[2] = target: T2, KRASwt (Homo sapiens, UniProt P01116); assay: Bio-Biochem-PPI-HTRF Ras-SOS1 interaction assay (KRAS wt); type: biochemical; details: 5 nM
T2 construct: made in house; host or cells: E. coli BL21 (DE3)
Method in brief: as §1

T2 sequence (P01116 1-188 isoform P01116-2): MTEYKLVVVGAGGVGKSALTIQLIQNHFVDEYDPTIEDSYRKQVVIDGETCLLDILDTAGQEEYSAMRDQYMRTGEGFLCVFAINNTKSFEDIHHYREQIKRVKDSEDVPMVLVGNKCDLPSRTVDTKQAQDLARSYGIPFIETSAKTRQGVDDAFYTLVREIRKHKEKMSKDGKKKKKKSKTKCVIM
T1 sequence (P01116 1-188 isoform P01116-2 G12D): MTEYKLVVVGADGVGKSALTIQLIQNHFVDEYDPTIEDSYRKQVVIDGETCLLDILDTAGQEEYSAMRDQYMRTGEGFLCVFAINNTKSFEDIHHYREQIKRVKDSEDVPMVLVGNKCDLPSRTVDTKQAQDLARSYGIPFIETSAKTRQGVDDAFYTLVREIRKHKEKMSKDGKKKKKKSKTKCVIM

Row | SMILES | IC50 [1] [µM] | IC50 [2] [µM]
1 | N#Cc1c(N)sc2c(F)ccc(-c3c(Cl)cc4c(N5CC(F)(F)C6(CN(C(=O)C(F)F)C6)C5)nc(OC[C@@]56CCCN5C[C@H](F)C6)nc4c3F)c12 [compound 330, 2-amino-4-(6-chloro-4-(2-(2,2-difluoroacetyl)-8,8-difluoro-2,6-diazaspiro [3.4]octan-6-yl)-8-fluoro-2-(((2R,7aS)-2-fluorotetrahydro-1H-pyrrolizin-7a(5H)-yl)methoxy)quinazolin-7-yl)-7-fluorobenzo[b]thiophene-3-carbonitrile] | < 5 | < 5
2 | NC(=O)N1CC2(CCN(c3nc(OC[C@@]45CCCN4C[C@H](F)C5)nc4c(F)c(-c5ccc(F)c6sc(N)nc56)c(Cl)cc34)CC2)C1 [compound 157, 7-(7-(2-amino-7-fluorobenzo [d]thiazol-4-yl)-6-chloro-8-fluoro-2-(((2R,7aS)-2-fluorotetrahydro-1H-pyrrolizin-7a(5H)-yl)methoxy)quinazolin-4-yl)-2,7-diazaspiro[3.5]nonane-2-carboxamide] | < 5 | < 5
3 | N#Cc1c(N)sc2c(F)ccc(-c3c(Cl)cc4c(N5CC(F)CCC6(CN(C(=O)[C@@H]7CC7(F)F)C6)C5)nc(OC[C@@]56CCCN5C[C@H](F)C6)nc4c3F)c12 (stereo partly drawn) [compound 269, 2-amino-4-(6-chloro-4-(2-((S)-2,2-difluorocyclopropane-1-carbonyl)-8-fluoro-2,6-diazaspiro[3.6]decan-6-yl)-8-fluoro-2-(((2R,7aS)-2-fluorotetrahydro-1H-pyrrolizin-7a(5H)-yl)methoxy)quinazolin-7-yl)-7-fluorobenzo[b]thiophene-3-carbonitrile] | < 5 | < 5
4 | Nc1nc2c(-c3c(Cl)cc4c(N5CCC6(CC5)CN(S(=O)(=O)F)C6)nc(OC[C@@]56CCCN5C[C@H](F)C6)nc4c3F)ccc(F)c2s1 [compound 191, 7-(7-(2-amino-7-fluorobenzo[d]thiazol-4-yl)-6-chloro-8-fluoro-2-(((2R,7aS)-2-fluorotetrahydro-1H-pyrrolizin-7a(5H)-yl)methoxy)quinazolin-4-yl)-2,7-diazaspiro[3.5]nonane-2-sulfonyl fluoride] | ≥ 5 | < 5
5 | N#Cc1c(N)sc2c(F)ccc(-c3c(Cl)cc4c(N5CCCCC6(CN(CC7CC7(F)F)C6)C5)nc(OC[C@@]56CCCN5C[C@H](F)C6)nc4c3F)c12 (stereo partly drawn) [compound 255, 2-amino-4-(6-chloro-4-(2-((2,2-difluorocyclopropyl)methyl)-2,6-diazaspiro[3.6]decan-6-yl)-8-fluoro-2-(((2R,7aS)-2-fluorotetrahydro-1H-pyrrolizin-7a(5H)-yl)methoxy)quinazolin-7-yl)-7-fluorobenzo[b]thiophene-3-carbonitrile] | < 5 | < 5
6 | N#Cc1c(N)sc2c(F)ccc(-c3c(Cl)cc4c(N5CCCCC6(CN(C(=O)[C@H]7[C@@H]8COC[C@@H]87)C6)C5)nc(OCC56CCCN5C[C@H](F)C6)nc4c3F)c12 (stereo partly drawn) [compound 192, 4-(4-(2-((1R,5S,6r)-3-oxabicyclo[3.1.0]hexane-6-carbonyl)-2,6-diazaspiro[3.6]decan-6-yl)-6-chloro-8-fluoro-2-(((2R,7aS)-2-fluorotetrahydro-1H-pyrrolizin-7a(5H)-yl)methoxy)quinazolin-7-yl)-2-amino-7-fluorobenzo [b]thiophene-3-carbonitrile] | < 5 | < 5
7 | N#Cc1c(N)sc2c(F)ccc(-c3c(Cl)cc4c(N5CCCCC6(CN(C(=O)C7CCCN7)C6)C5)nc(OC[C@@]56CCCN5C[C@H](F)C6)nc4c3F)c12 (stereo partly drawn) [compound 314, 2-amino-4-(6-chloro-8-fluoro-2-(((2R,7aS)-2-fluorotetrahydro-1H-pyrrolizin-7a(5H)-yl)methoxy)-4-(2-prolyl-2,6-diazaspiro[3.6]decan-6-yl)quinazolin-7-yl)-7-fluorobenzo[b]thiophene-3-carbonitrile] | < 5 | < 5
8 | Nc1nc2c(-c3c(Cl)cc4c(N5CCCC6(CCNC6)C5)nc(OC[C@@]56CCCN5C[C@H](F)C6)nc4c3F)ccc(F)c2s1 (stereo partly drawn) [compound 130, 4-(6-chloro-8-fluoro-2-(((2R,7aS)-2-fluorotetrahydro-1H-pyrrolizin-7a(5H)-yl)methoxy)-4-(2,7-diazaspiro[4.5]decan-7-yl)quinazolin-7-yl)-7-fluorobenzo[d]thiazol-2-amine] | < 5 | < 5

Further lines, results first:

Row | IC50 [1] [µM] | IC50 [2] [µM] | SMILES
9 | < 5 | < 5 | CN(C)C/C=C/C(=O)N1CC2(CCN(c3nc(OC[C@@]45CCCN4C[C@H](F)C5)nc4c(F)c(-c5ccc(F)c6sc(N)c(C#N)c56)c(Cl)cc34)C2)C1 [compound 183, 2-amino-4-(6-chloro-4-(2-((E)-4-(dimethylamino)but-2-enoyl)-2,6-diazaspiro[3.4]octan-6-yl)-8-fluoro-2-(((2R,7aS)-2-fluorotetrahydro-1H-pyrrolizin-7a(5H)-yl)methoxy)quinazolin-7-yl)-7-fluorobenzo[b]thiophene-3-carbonitrile]
10 | < 5 | < 5 | Cc1cc(C(=O)N2CC3(CCCCN(c4nc(OC[C@@]56CCCN5C[C@H](F)C6)nc5c(F)c(-c6ccc(F)c7sc(N)c(C#N)c67)c(Cl)cc45)C3)C2)nn1C(F)F [compound 209, 2-amino-4-(6-chloro-4-(2-(1-(difluoromethyl)-5-methyl-1H-pyrazole-3-carbonyl)-2,6-diazaspiro[3.6]decan-6-yl)-8-fluoro-2-(((2R,7aS)-2-fluorotetrahydro-1H-pyrrolizin-7a(5H)-yl)methoxy)quinazolin-7-yl)-7-fluorobenzo[b]thiophene-3-carbonitrile]
11 | < 5 | < 5 | Cc1c(N)sc2c(F)ccc(-c3c(Cl)cc4c(N5CCOC6(CN(C(=O)/C(C#N)=C/c7ccoc7)C6)C5)nc(OC[C@@]56CCCN5C[C@H](F)C6)nc4c3F)c12 [compound 348, (E)-2-(8-(7-(2-amino-7-fluoro-3-methylbenzo[b]thiophen-4-yl)-6-chloro-8-fluoro-2-(((2R,7aS)-2-fluorotetrahydro-1H-pyrrolizin-7a(5H)-yl)methoxy)quinazolin-4-yl)-5-oxa-2,8-diazaspiro [3.5]nonane-2-carbonyl)-3-(furan-3-yl) acrylonitrile]
12 | < 5 | < 5 | N#Cc1c(N)sc2c(F)ccc(-c3c(Cl)cc4c(N5CCCCC6(CN(C(=O)C[C@H]7CCOC7)C6)C5)nc(OC[C@@]56CCCN5C[C@H](F)C6)nc4c3F)c12 [compound 304, 2-amino-4-(6-chloro-8-fluoro-2-(((2R,7aS)-2-fluorotetrahydro-1H-pyrrolizin-7a(5H)-yl)methoxy)-4-(2-(2-((R)-tetrahydrofuran-3-yl)acetyl)-2,6-diazaspiro[3.6]decan-6-yl)quinazolin-7-yl)-7-fluorobenzo[b]thiophene-3-carbonitrile]
13 | < 5 | < 5 | N#Cc1c(N)sc2c(F)ccc(-c3c(Cl)cc4c(N5CCOCC6(CN(C(=O)[C@@H]7CC7(F)F)C6)C5)nc(OC[C@@]56CCCN5C[C@H](F)C6)nc4c3F)c12 [compound 239, 2-amino-4-(6-chloro-4-(2-((S)-2,2-difluorocyclopropane-1-carbonyl)-6-oxa-2,9-diazaspiro[3.6]decan-9-yl)-8-fluoro-2-(((2R,7aS)-2-fluorotetrahydro-1H-pyrrolizin-7a(5H)-yl)methoxy)quinazolin-7-yl)-7-fluorobenzo[b]thiophene-3-carbonitrile]

Reference: patent US20240109918A1, “HETEROCYCLIC COMPOUNDS AND USES THEREOF” (Kumquat Biosciences Inc., priority 2022, published 2024)
